The record followed here is US9873667B2, “Arylsulfanyl compounds and compositions for delivering active agents” (EMISPHERE TECHNOLOGIES INC., priority 2006, dated 2018).

Data set [1] is described as follows: Oral delivery of LHRH with delivery agent; plasma LHRH concentration. Format: in vivo, male Sprague-Dawley rats. To be noted: Delivery Agent: 200 mg/kg, LHRH: 1 mg/kg. How it is done: Oral gavage dosing solutions of delivery agent compound and LHRH in phosphate buffer were prepared by mixing. A solution of the delivery agent compound was made either with the sodium salt of the delivery agent compound or by converting the free acid to its sodium salt. A solution of the delivery agent compound was prepared in phosphate buffer and stirred, adding one equivalent of sodium hydroxide (1.0 N) when making the sodium salt. The final dosing solutions were prepared by mixing the delivery agent compound solution with a LHRH stock solution (2.75 ml with a concentration of 20 mg/ml in aqueous solution). The pH was adjusted, if necessary, to between about 7 and 8.8.
(§1) Male Sprague-Dawley rats weighing between about 250-300 g were fasted for 24 hours. A dosing group of five animals was administered one of the dosing solutions. An 11 cm Rusch 8 French catheter was adapted to a 1 ml syringe with a pipette tip. The syringe was filled with the dosing solution by drawing the solution through the catheter, which was then wiped dry. The catheter was placed down the esophagus leaving 1 cm of tubing past the incisors. The dosing solution was administered by pressing the syringe plunger.
Blood samples were collected through retroorbital bleeding of approximately 0.4 ml of blood volume using EDTA tubes at time=0 (pre-dose), 2, 10, 15 and 30 minutes. The five samples from each time period were pooled. Previous studies indicated baseline values of about zero. The maximum absorption at the Tmax is reported below in Table 7. As controls, 4-(3-methyl phenoxy) butyric acid (D.A. “B”), the mesylate salt of (4-(8-(2-hydroxyphenoxy)octyl) morpholine (D.A. “C”), 4-(4-(2-hydroxyphenoxy)butyl) morpholine (D.A. “D”), and 4-(6-(2-hydroxyphenoxy)hexyl) morpholine (D.A. “E”) were also administered according to the same protocol and their results are also shown in FIG. 6.

The nature of data set [2]: Oral delivery of heparin with delivery agent; plasma heparin concentration. The format is in vivo, male Sprague-Dawley rats. To be noted: Delivery Agent 200 mg/kg, Heparin 80 mg/kg.
The subject of another data set is Blood glucose levels. Put plainly: Oral delivery of insulin with delivery agent compound; blood glucose by glucometer. Format: in vivo, male Sprague-Dawley rats. How it is done: Insulin stock solution (15 mg/ml) (Human zinc insulin, Calbiochem-Novabiochem Corp., La Jolla, Calif.) was prepared with deionized water. Oral dosing compositions containing 200 mg/kg of delivery agent compound and 0.5 mg/kg of insulin in aqueous solution were prepared with the delivery agent compound shown in Table 1 below. Either the sodium salt of the delivery agent compound was used or the free acid was converted to the sodium salt with one equivalent of sodium hydroxide.
The dosing solution was administered to fasted male Sprague-Dawley rats by oral gavage with an average weight of about 225-250 grams. Blood glucose levels were then determined by glucometer (One Touch Ultra®, LifeScan, Inc.) and compared to vehicle control (1 ml/kg of water). Samples were collected prior to dosing (time 0) and at 15, 30, 45 and 60 minutes after dosing. The % glucose reduction values in Table 1 are values found at the C minimum, and are an average % reduction with respect to the number of times the experiment was run for each delivery agent.
0.5 mg/kg of Insulin and 25-100 mg/kg of delivery agent compound (particular amount shown in Table 2 below) was administered to male Sprague-Dawley rats with an average weight of about 225-250 grams. The purpose of this test was to ascertain the dose response of the delivery agent compound. Glucose reduction was determined as set forth in connection with the data in Table 1.
Insulin Titrations were performed with Delivery Agent 29 in order to gauge the effect of varying dosages of insulin.

Data set [3] relates to activated partial thromboplastin time (APTT). Description: Intracolonic delivery of heparin with delivery agent; clotting time (APTT). Format: in vivo, male Sprague-Dawley rats. Particulars: Delivery Agent 50 mg/kg, USP Heparin 25 mg/kg; for Tmax: time of peak APTT. On the procedure:
Oral gavage and/or intracolonic (IC) dosing solutions containing delivery agent compound and heparin sodium USP were prepared in 25% aqueous propylene glycol. Either the sodium salt of the delivery agent compound was used or the free acid was converted to the sodium salt with one equivalent of sodium hydroxide. The delivery agent compound and heparin (about 166-182 IU/mg) were mixed by vortex as dry powders. This dry mixture was dissolved in 25% v/v aqueous propylene glycol, vortexed, and placed in a sonicator (about 37° C.). The pH was adjusted to about 7 (6.5-8.5) with aqueous NaOH (2N). The dosing solution was sonicated to produce a clear solution. The final volume was adjusted to about 3.0 ml.
as §1, with “about 275-350” for “about 250-300”, “24 hours and anesthetized with ketamine hydrochloride (88 mg/kg) intramuscularly immediately prior to dosing and again as needed to maintain anesthesia.” for “24 hours.”, “animals were” for “animals was”, “solutions. For oral gavage dosing, an” for “solutions. An”, “with” for “with the”
For intracolonic (IC) dosing, a 7.5 cm, 8 French Rusch catheter was adapted to a 1 ml syringe with a pipette tip. The dosing catheter was inserted into the colon through the anus until the tube was no longer visible. The dosing solution was expressed slowly into the colon by pressing the syringe plunger.
Citrated blood samples were collected by cardiac puncture following the administration of ketamine (88 mg/kg), typically at 0.25, 0.5, 1.0 and 1.5 hours after dosing. Heparin absorption was verified by an increase in clotting time measured by the activated partial thromboplastin time (APTT) according to the method of Henry, J. B., Clinical Diagnosis and Management by Laboratory Methods, Philadelphia, Pa., W.B. Saunders (1979), which is hereby incorporated by reference. Previous studies indicated baseline values of about 20 seconds. Results from the animals in each group were averaged for each time points and the highest of these averages (i.e. mean peak APTT) is reported.

A short description of data set [4]: Oral delivery of caspofungin acetate with delivery agent; plasma caspofungin acetate concentration. Format: in vivo, male Sprague-Dawley rats. Particulars: Delivery Agent 200 mg/kg, caspofungin acetate: 25 mg/kg. How it is done:
Oral gavage dosing solutions of delivery agent compound and caspofungin acetate (Merck & Co., Whitehouse Station, N.J.) in phosphate buffer were prepared by mixing. A solution of the delivery agent compound was made either with the sodium salt of the delivery agent compound or by converting the free acid to its sodium salt. A solution of the delivery agent compound was prepared in phosphate buffer and stirred, adding one equivalent of sodium hydroxide (1.0 N) when making the sodium salt. The final dosing solutions were prepared by mixing the delivery agent compound solution with a caspofungin acetate stock solution (2.5 ml with a concentration of 100 mg/ml in aqueous solution). The pH was adjusted, if necessary, to between about 7 and 8.8. Male Sprague-Dawley rats weighing between about 250-300 g were fasted for 24 hours. A dosing group of five animals was administered one of the dosing solutions. An 11 cm Rusch 8 French catheter was adapted to a 1 ml syringe with a pipette tip. The syringe was filled with the dosing solution by drawing the solution through the catheter, which was then wiped dry. The catheter was placed down the esophagus leaving 1 cm of tubing past the incisors. The dosing solution was administered by pressing the syringe plunger. Blood samples were collected through retroorbital bleeding at time=0 (pre-dose), 15, 30, 60, 240, and 480 minutes. […]

[5] abbreviates: dose response, Delivery Agent Compound 50 mg/kg, Insulin 0.5 mg/kg.
Setting [6] is: dose response, Delivery Agent Compound 100 mg/kg, Insulin 0.5 mg/kg.
[7] abbreviates: oral gavage, 200 mg/kg Delivery Agent Compound, 0.5 mg/kg Insulin, value at C minimum vs vehicle control.
The mark [8] stands for this setting: dose response, Delivery Agent Compound 25 mg/kg, Insulin 0.5 mg/kg.

Take `Cc1ccc(C)c(SCCCCCC(=O)O)c1` [Compound 6, 6-(2,5-Dimethyl-phenylsulfanyl)-hexanoic acid]: the melting point lay in the range of 61 to 62 °C. For the same molecule, the time of peak concentration (Tmax) in data set [1] was found to be 5 min. Also, the Tmax in data set [2] turned out to be 15 min. For the same molecule, the “% Glucose Reduction” value with Blood glucose levels (setting [5]) is given as −15.8%. Further, in the data set with Blood glucose levels (setting [6]), the “% Glucose Reduction” value is listed as −19.2%. The “% Glucose Reduction” value in the data set on Blood glucose levels (setting [7]) is listed as −9.8 ± 30.4%.
Take `Cc1ccc(C)c(SCC(=O)O)c1` [Compound 58, (2,5-Dimethyl-phenylsulfanyl)-acetic acid]: the melting point was 73 to 74 °C. Besides, the “% Glucose Reduction” value in the data set on Blood glucose levels (setting [7]) is reported as −18.2%.
As for `COc1ccc(SCCCCCCCC(=O)O)cc1` [Compound 10, 8-(4-Methoxy-phenylsulfanyl)-octanoic acid], the melting point was in the range of 66 to 68 °C.
As for `O=C(O)CCCCCCCSc1ccccc1O` [Compound 5, 8-(2-Hydroxy-phenylsulfanyl)-octanoic acid], the melting point lay in the range of 49 to 50 °C. In data set [1], the time to peak (Tmax) was 5 min. In the data set with Blood glucose levels (setting [5]), the “% Glucose Reduction” value is listed as −13.5%. In the data set on Blood glucose levels (setting [6]), the “% Glucose Reduction” value is listed as −18.2%.
Molecule `Cc1ccc(C)c(SCCC(=O)O)c1` [Compound 9, 3-(2,5-Dimethyl-phenylsulfanyl)-propionic acid] came in with a melting point of 100 to 102 °C.
Take `COc1ccccc1SCCCCCCCC(=O)O` [Compound 1, 8-(2-Methoxy-phenylsulfanyl)-octanoic acid]: the melting point is 62 to 63 °C. The time of peak concentration (Tmax) in data set [1] was determined as 5 min. In data set [3], the “APTT (mean peak)” value was found to be 180 s and the time of peak concentration (Tmax) is 30 min. In addition, the “% Glucose Reduction” value in the data set on Blood glucose levels (setting [7]) was −0.2%.
As to `COc1ccc(SCCCCC(=O)O)cc1` [Compound 14, 5-(4-Methoxy-phenylsulfanyl)-pentanoic acid], the time of peak concentration (Tmax) in data set [4] was determined as 60 min.
As to `COc1ccccc1SCCCCCCCCCC(=O)O` [Compound 4, 10-(2-Methoxy-phenylsulfanyl)-decanoic acid], the melting point lay within 65 to 66 °C. Also, in data set [1], the time to peak (Tmax) is 5 min.
As for `Cc1ccc(C)c(SCCCCCCCC(=O)O)c1` [Compound 2, 8-(2,5-Dimethyl-phenylsulfanyl)-octanoic acid], the melting point lay within 60 to 63 °C. In addition, the Tmax in data set [2] turned out to be 45 min. Further, the “% Glucose Reduction” value in the data set on Blood glucose levels (setting [8]) was −10.0%.
Take `O=C(O)CCCCCCCSc1ccc(Cl)cc1` [Compound 33, 8-(4-Chloro-phenylsulfanyl)-octanoic acid]: the melting point was in the range of 92 to 93 °C.
`COc1ccccc1SCCCCCC(=O)O` [Compound 3, 6-(2-Methoxy-phenylsulfanyl)-hexanoic acid] showed a melting point of 81 to 82 °C. Besides, in data set [1], the time to peak (Tmax) is 5 min.
With `O=C(O)CCCCCCCSc1ccc(O)cc1` [Compound 11, 8-(4-Hydroxy-phenylsulfanyl)-octanoic acid], the melting point is 94 to 95 °C. Besides, in data set [3], the “APTT (mean peak)” value came to 300.0 s and the Tmax turned out to be 30.0 min.
As for `Cc1ccc(C)c(SCCCC(=O)O)c1` [Compound 7, 4-(2,5-Dimethyl-phenylsulfanyl)-butyric acid], the melting point fell in the range of 61 to 62 °C. Further, the Tmax in data set [1] worked out at 5 min. Moreover, the time to peak (Tmax) in data set [2] was 60 min.
With `O=C(O)CCCCCSc1ccc(O)cc1` [Compound 35, 6-(4-Hydroxy-phenylsulfanyl)-hexanoic acid], the melting point is 92 to 94 °C. Moreover, in data set [3], the “APTT (mean peak)” value came out at 100.0 s and the Tmax came to 30.0 min.
For the molecule `O=C(O)CCCSc1ccccc1O` [Compound 12, 4-(2-Hydroxy-phenylsulfanyl)-butyric acid], the melting point fell in the range of 77 to 78 °C.
Take `O=C(O)CCCCCCCCCSc1ccccc1O` [Compound 8, 10-(2-Hydroxy-phenylsulfanyl)-decanoic acid]: the melting point lay within 58 to 59 °C. Further, the “% Glucose Reduction” value with Blood glucose levels (setting [8]) is reported as −9.7%. The “% Glucose Reduction” value in the data set with Blood glucose levels (setting [5]) is reported as −30.5%.
With `O=C(O)CCCSc1ccc(Cl)cc1` [Compound 34, 4-(4-Chloro-phenylsulfanyl)-butyric acid], the melting point was 100 to 101 °C.
